Tests used:
Assay in all cases: relative viability (nuclei count vs DMSO), 5 days (fraction); higher = more cells survive
Vorinostat = compound: O=C(CCCCCCC(=O)Nc1ccccc1)NO [Vorinostat]
Summary of the method: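 Lung cancer cell lines received five library-drug doses (not always all listed) spaced by √10, pinned on vehicle-anchored 1536-well plates after an overnight stay at 37 °C. Five days later, with no medium change, nuclei were Hoechst-stained, imaged at 4× and counted with MetaXpress. Viability is treated-well nuclei relative to vehicle-well nuclei, as a median across plates. Passing plates had control CV below 25% and at least one doubling.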

Vorinostat + Navitoclax = compound: O=C(CCCCCCC(=O)Nc1ccccc1)NO [Vorinostat] + CC1(C)CCC(c2ccc(Cl)cc2)=C(CN2CCN(c3ccc(C(=O)NS(=O)(=O)c4ccc(N[C@H](CCN5CCOCC5)CSc5ccccc5)c(S(=O)(=O)C(F)(F)F)c4)cc3)CC2)C1 [Navitoclax] (partner 0.5 µM)
Summary of the method: (§1)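 One day after seeding in 1536-well plates, lung cancer cell lines were dosed by pin tool. Dosing was either single-drug or a fixed anchor-drug dose plus five library-drug doses (not always all listed) in √10 steps. After 5 days, nuclei were stained in one fix-and-stain step and counted on 4× images, and relative viability is the nuclei count of treated wells over that of vehicle wells, given as the median of duplicate plates.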

Vorinostat + Foretinib = compound: O=C(CCCCCCC(=O)Nc1ccccc1)NO [Vorinostat] + COc1cc2c(Oc3ccc(NC(=O)C4(C(=O)Nc5ccc(F)cc5)CC4)cc3F)ccnc2cc1OCCCN1CCOCC1 [Foretinib] (partner 0.25 µM)
Summary of the method: as §1

Vorinostat + Bortezomib = compound: O=C(CCCCCCC(=O)Nc1ccccc1)NO [Vorinostat] + CC(C)C[C@H](NC(=O)[C@H](Cc1ccccc1)NC(=O)c1cnccn1)B(O)O [Bortezomib] (partner 0.002 µM)
Summary of the method: as §1

Vorinostat + Alpelisib = compound: O=C(CCCCCCC(=O)Nc1ccccc1)NO [Vorinostat] + Cc1nc(NC(=O)N2CCC[C@H]2C(N)=O)sc1-c1ccnc(C(C)(C)C(F)(F)F)c1 [Alpelisib] (partner 2 µM)
Summary of the method: as §1

Vorinostat + Linsitinib = compound: O=C(CCCCCCC(=O)Nc1ccccc1)NO [Vorinostat] + C[C@]1(O)C[C@@H](c2nc(-c3ccc4ccc(-c5ccccc5)nc4c3)c3c(N)nccn32)C1 [Linsitinib] (partner 1 µM)
Summary of the method: as §1

Vorinostat + Crizotinib = compound: O=C(CCCCCCC(=O)Nc1ccccc1)NO [Vorinostat] + C[C@@H](Oc1cc(-c2cnn(C3CCNCC3)c2)cnc1N)c1c(Cl)ccc(F)c1Cl [Crizotinib] (partner 1 µM)
Summary of the method: as §1

Vorinostat + Olaparib = compound: O=C(CCCCCCC(=O)Nc1ccccc1)NO [Vorinostat] + O=C(c1cc(Cc2n[nH]c(=O)c3ccccc23)ccc1F)N1CCN(C(=O)C2CC2)CC1 [Olaparib] (partner 8 µM)
Summary of the method: as §1

Vorinostat + Lapatinib = compound: O=C(CCCCCCC(=O)Nc1ccccc1)NO [Vorinostat] + CS(=O)(=O)CCNCc1ccc(-c2ccc3ncnc(Nc4ccc(OCc5cccc(F)c5)c(Cl)c4)c3c2)o1 [Lapatinib] (partner 2 µM)
Summary of the method: as §1

Vorinostat + Pictilisib = compound: O=C(CCCCCCC(=O)Nc1ccccc1)NO [Vorinostat] + CS(=O)(=O)N1CCN(Cc2cc3nc(-c4cccc5[nH]ncc45)nc(N4CCOCC4)c3s2)CC1 [Pictilisib] (partner 1 µM)
Summary of the method: as §1

Vorinostat + OSI-027 = compound: O=C(CCCCCCC(=O)Nc1ccccc1)NO [Vorinostat] + COc1cccc2cc(-c3nc([C@H]4CC[C@H](C(=O)O)CC4)n4ncnc(N)c34)[nH]c12 [OSI-027] (partner 0.5 µM)
Summary of the method: as §1

Vorinostat + Tozasertib = compound: O=C(CCCCCCC(=O)Nc1ccccc1)NO [Vorinostat] + Cc1cc(Nc2cc(N3CCN(C)CC3)nc(Sc3ccc(NC(=O)C4CC4)cc3)n2)n[nH]1 [Tozasertib] (partner 0.1 µM)
Summary of the method: as §1

Vorinostat + Phenformin = compound: O=C(CCCCCCC(=O)Nc1ccccc1)NO [Vorinostat] + N=C(N)NC(=N)NCCc1ccccc1 [Phenformin] (partner 250 µM)
Summary of the method: as §1

Vorinostat + Dasatinib = compound: O=C(CCCCCCC(=O)Nc1ccccc1)NO [Vorinostat] + Cc1nc(Nc2ncc(C(=O)Nc3c(C)cccc3Cl)s2)cc(N2CCN(CCO)CC2)n1 [Dasatinib] (partner 0.075 µM)
Summary of the method: as §1

Vorinostat + Luminespib = compound: O=C(CCCCCCC(=O)Nc1ccccc1)NO [Vorinostat] + CCNC(=O)c1noc(-c2cc(C(C)C)c(O)cc2O)c1-c1ccc(CN2CCOCC2)cc1 [Luminespib] (partner 0.01 µM)
Summary of the method: as §1

Cell Line: NCI-H1299
- relative viability (Vorinostat; 0.253 µM): 1.06
- relative viability (Vorinostat; 0.8 µM): 0.979
- relative viability (Vorinostat; 2.53 µM): 0.786
- relative viability (Vorinostat; 8 µM): 0.36
- relative viability (Vorinostat + Navitoclax; first compound 0.253 µM): 1.07
- relative viability (Vorinostat + Navitoclax; first compound 0.8 µM): 1
- relative viability (Vorinostat + Navitoclax; first compound 2.53 µM): 0.767
- relative viability (Vorinostat + Navitoclax; first compound 8 µM): 0.444
- relative viability (Vorinostat + Foretinib; first compound 0.253 µM): 1.05
- relative viability (Vorinostat + Foretinib; first compound 0.8 µM): 1.06
- relative viability (Vorinostat + Foretinib; first compound 2.53 µM): 0.717
- relative viability (Vorinostat + Foretinib; first compound 8 µM): 0.277
- relative viability (Vorinostat + Bortezomib; first compound 0.253 µM): 1.07
- relative viability (Vorinostat + Bortezomib; first compound 0.8 µM): 1.03
- relative viability (Vorinostat + Bortezomib; first compound 2.53 µM): 0.826
- relative viability (Vorinostat + Bortezomib; first compound 8 µM): 0.343
- relative viability (Vorinostat + Alpelisib; first compound 0.253 µM): 1.15
- relative viability (Vorinostat + Alpelisib; first compound 0.8 µM): 1.05
- relative viability (Vorinostat + Alpelisib; first compound 2.53 µM): 0.789
- relative viability (Vorinostat + Alpelisib; first compound 8 µM): 0.454
- relative viability (Vorinostat + Linsitinib; first compound 0.253 µM): 1.15
- relative viability (Vorinostat + Linsitinib; first compound 0.8 µM): 0.923
- relative viability (Vorinostat + Linsitinib; first compound 2.53 µM): 0.51
- relative viability (Vorinostat + Linsitinib; first compound 8 µM): 0.265
- relative viability (Vorinostat + Crizotinib; first compound 0.253 µM): 0.992
- relative viability (Vorinostat + Crizotinib; first compound 0.8 µM): 0.812
- relative viability (Vorinostat + Crizotinib; first compound 2.53 µM): 0.554
- relative viability (Vorinostat + Crizotinib; first compound 8 µM): 0.291
- relative viability (Vorinostat + Olaparib; first compound 0.253 µM): 1
- relative viability (Vorinostat + Olaparib; first compound 0.8 µM): 0.909
- relative viability (Vorinostat + Olaparib; first compound 2.53 µM): 0.642
- relative viability (Vorinostat + Olaparib; first compound 8 µM): 0.329
- relative viability (Vorinostat + Lapatinib; first compound 0.253 µM): 0.979
- relative viability (Vorinostat + Lapatinib; first compound 0.8 µM): 0.87
- relative viability (Vorinostat + Lapatinib; first compound 2.53 µM): 0.736
- relative viability (Vorinostat + Lapatinib; first compound 8 µM): 0.466
- relative viability (Vorinostat + Pictilisib; first compound 0.253 µM): 1.1
- relative viability (Vorinostat + Pictilisib; first compound 0.8 µM): 0.677
- relative viability (Vorinostat + Pictilisib; first compound 2.53 µM): 0.221
- relative viability (Vorinostat + Pictilisib; first compound 8 µM): 0.075

Cell Line: NCI-H1623
- relative viability (Vorinostat; 0.253 µM): 0.916
- relative viability (Vorinostat; 0.8 µM): 0.948
- relative viability (Vorinostat; 2.53 µM): 0.358
- relative viability (Vorinostat; 8 µM): 0.217
- relative viability (Vorinostat + OSI-027; first compound 0.253 µM): 0.462
- relative viability (Vorinostat + OSI-027; first compound 0.8 µM): 0.392
- relative viability (Vorinostat + OSI-027; first compound 2.53 µM): 0.281
- relative viability (Vorinostat + OSI-027; first compound 8 µM): 0.209
- relative viability (Vorinostat + Foretinib; first compound 0.253 µM): 0.918
- relative viability (Vorinostat + Foretinib; first compound 0.8 µM): 0.781
- relative viability (Vorinostat + Foretinib; first compound 2.53 µM): 0.42
- relative viability (Vorinostat + Foretinib; first compound 8 µM): 0.233
- relative viability (Vorinostat + Tozasertib; first compound 0.253 µM): 0.41
- relative viability (Vorinostat + Tozasertib; first compound 0.8 µM): 0.408
- relative viability (Vorinostat + Tozasertib; first compound 2.53 µM): 0.283
- relative viability (Vorinostat + Tozasertib; first compound 8 µM): 0.217
- relative viability (Vorinostat + Phenformin; first compound 0.253 µM): 0.61
- relative viability (Vorinostat + Phenformin; first compound 0.8 µM): 0.564
- relative viability (Vorinostat + Phenformin; first compound 2.53 µM): 0.462
- relative viability (Vorinostat + Phenformin; first compound 8 µM): 0.225
- relative viability (Vorinostat + Dasatinib; first compound 0.253 µM): 0.387
- relative viability (Vorinostat + Dasatinib; first compound 0.8 µM): 0.521
- relative viability (Vorinostat + Dasatinib; first compound 2.53 µM): 0.436
- relative viability (Vorinostat + Dasatinib; first compound 8 µM): 0.203
- relative viability (Vorinostat + Luminespib; first compound 0.253 µM): 0.529
- relative viability (Vorinostat + Luminespib; first compound 0.8 µM): 0.564
- relative viability (Vorinostat + Luminespib; first compound 2.53 µM): 0.398
- relative viability (Vorinostat + Luminespib; first compound 8 µM): 0.291
